Patent publication US10208351B2, “RNY-derived small RNAs as biomarkers for atherosclerosis-related disorders” (INSTITUT NATIONAL DE LA SANTE ET DE LA RECHERCHE MEDICALE …, priority 2013, dated 2019)

What was measured:
[1] = test system: s-RNY1-3p binding sites (BS) from KFL2 mRNA sequence in NIH-3T3 cells; test: Luciferase reporter assay with s-RNY1-3p binding sites from KLF2 mRNA; format: cell-based; conditions: PA treatment, FIG. 12C
From the text: FIG. 12: (A) RNA duplex expected to result from base pairing of KFL2 mRNA with s-RNY1-3p. A-U and G-C base pairs are represented by solid lines; G-U wobble base pairs are represented by dotted lines, shown herein as SEQ ID NOS 58 and 59, respectively. (B) The sequence of the predicted target site of KFL2 mRNA from the indicated species, shown herein as SEQ ID NOS 60-63, respectively. The s-RNY1-3p seed complementary sequence is enclosed by a black box. Nucleotide conservation across the species is indicated by asterisks. (C) Relative luciferase activity of reporter constructs containing two either wt or mutant s-RNY1-3p binding sites (BS) from KFL2 mRNA sequence in NIH-3T3 cells transfected with either 2′-OMe-RNA antisense oligonucleotide to s-RNY1-3p or control. Cells were left unstimulated or stimulated with 0.25 mM of PA for 18 hr. The data were normalized using Renilla activity. Data are presented as mean and s.d. (n=4). Student's t-test: **P<0.01.
NIH-3T3 cells (80% confluence in 96-well plates) were transfected with Lipofectamine 2000® according to the manufacturer's instructions. Luciferase reporter assay was performed as previously described (Repetto, E., et al. (2012). PLoS genetics 8, e1002823).

[2] = test system: bone marrow-derived macrophages (BMDMs); test: s-RNY expression in stimulated BMDMs, stem-loop quantitative RT-PCR; format: cell-based, mouse; conditions: for s-RNY expression: stimulus given alone
p38, NF-κB, JNK = test: p38, NF-κB and JNK signaling activation in BMDMs; format: cell-based, mouse; conditions: time course, data not shown
Protocol: BMDMs and NIH-3T3 cells (ATCC) were transiently transfected for 48 hr with Lipofectamine 2000 (Invitrogen) according to the manufacturer's instructions. siRNAs were transfected at the final concentration of 24 nM, while 2′-OMe-RNA antisense oligonucleotides to s-RNYs (Eurogentec) were transfected at the final concentration of 100 nM. When required, cell lysates were incubated at room temperature with RNase A (10 mg/ml, Ambion) for 30 min. Three-hundred micrograms of protein was immunoprecipitated with Protein A-Dynabeads (Invitrogen)-coupled antibodies for 16 hr at 4° C. with rotation. Immunoprecipitates were washed four times with lysis buffer and resuspended in SDS protein loading buffer. Proteins were subjected to SDS-PAGE, electroblotted onto PVDF membranes, and probed with different antibodies as indicated.
Recombinant Ago2 and hnRNP A1 were purchased from Sino Biological Inc. and CliniSciences, respectively, while recombinant KSRP was a gift from Dr. R. Gherzi. Mouse monoclonal anti-hnRNP A1 (4B10), mouse monoclonal anti-c-Myc (9E10), goat anti-actin (1-19), and IκBα (H-4) antibodies were purchased from SantaCruz. Rabbit anti-La/SSB and anti-Ro60 (TROVE2) antibodies were purchased from GmbH. Anti-Ago2 antibody was purchased from Wako Chemicals while rabbit anti-KLF2 and anti-NOS2A antibodies were from Millipore. Anti-KSRP antibody was a gift from Dr. R. Gherzi. […]

BMDMs [3] = test: Quantitative RT-PCR of s-RNYs from the medium of BMDMs; format: cell-based, mouse; conditions: 0.25 mM PA 18 hr, FIG. 14B
Protocol: FIG. 14: (A) Quantitative RT-PCR analysis of the indicated s-RNYs in BMDMs incubated with 0.25 mM of PA the indicated time. The data were normalized by U2 snRNA. (B) Quantitative RT-PCR analysis of the indicated s-RNYs from the medium of BMDMs. Cells were left unstimulated or incubated with 0.25 mM PA for 18 hr. Data were normalized by using the synthetic non-mammalian cel-miR-39, which was added to the samples before the RNA extraction. Data are presented as mean and s.d. (n=8).
(§1) RNA expression by quantitative RT-PCR was carried out by using standard procedures. Briefly, for mRNA, total RNA was isolated from cells using Trizol and cDNA was synthesized with a random hexonucleotides using Superscript III (Invitrogen). For s-RNYs detection by quantitative RT-PCR a stem-loop quantitative RT-PCR method was used according to Chen et al. (Chen, C., et al. (2005). Nucleic acids research 33, e179). Briefly, total RNA was isolated from cells, tissue, or immunoprecipitation using Trizol (Invitrogen) according to the manufacturer's instructions. […] This method allows the detection of the s-RNYs derived from only the 5′ end of the precursor by quantitative RT-PCR analysis, namely the s-RNY1-5p and s-RNY3-5p from mouse and s-RNY1-5p, s-RNY3-5p, and s-RNY4-5p from human. Quantitative RT-PCRs using Sybr Green and TaqMan (Invitrogen) for cel-miR-39 were performed on a StepONE system (Applied Biosystem). […]

BMDMs [4] = test: Apoptosis assay in BMDMs (annexin V / Dapi, flow cytometry); format: cell-based, mouse; conditions: FIGS. 13A and 13B
Protocol: FIG. 13: Apoptotic data by fluorocytometry for BMDMs overexpressing s-RNYs, transfected with either 2′-OMe-RNA antisense oligonucleotides to s-RNYs or control. BMDMs were stimulated with 0.25 mM of PA for 18 hr (A), 0.25 μM thapsigargin (Tg) in combination with […] of oxLDL for 28 hr (B), or left unstimulated (C). Percentage of apoptotic and necrotic cells was determined by staining with Dapi and annexin […]. Data are presented as mean and s.d. (n=3). Apoptosis was assayed in BMDMs by staining with Alexa 488-conjugated annexin V and Dapi as previously described (Jacquel, A., et al., 2012. Blood 119(19): 4527-4531). The number of annexin V- and Dapi-positive cells was counted and expressed as a percent of the total number of cells from duplicate wells.

[5] = test system: bone marrow-derived macrophages (BMDMs); test: s-RNY expression in stimulated BMDMs, stem-loop quantitative RT-PCR; format: cell-based, mouse; conditions: in combination with thapsigargin (ER stress)
Protocol: Bone marrow cells were collected from femurs and tibias of ten-week-old male C57BL/6J mice by flushing with sterile medium as previously described (T. Ruggiero, M. et al (2009) FASEB J 23:2898-2908). To differentiate into macrophages, bone marrow cells (10^6) were plated in 10-cm plates in 7 ml of BMDM medium (DMEM supplemented with 20% low-endotoxin fetal bovine serum, 30% L929-cell conditioned medium, 1% I-glutamine, 1% Pen/Strep, 0.5% Na pyruvate, and 0.1% β-mercaptoethanol), and fed with 2.5 ml of fresh medium every 2 days for 7 days. Human primary macrophages were prepared from peripheral blood monocytes obtained from healthy donors (Jacquel, A., et al. (2012). Blood 119, 4527-4531) in agreement with the French legislation on human biomedical research. All participants provided written informed consent attesting they had received all the information they needed about the study and they agreed in accordance with appropriate national regulations.
RNA expression by quantitative RT-PCR was carried out by using standard procedures. Briefly, for mRNA, total RNA was isolated from cells using Trizol and cDNA was synthesized with a random hexonucleotides using Superscript III (Invitrogen). For s-RNYs detection by quantitative RT-PCR a stem-loop quantitative RT-PCR method was used according to Chen et al. (Chen, C., et al. (2005). Nucleic acids research 33, e179). Briefly, total RNA was isolated from cells, tissue, or immunoprecipitation using Trizol (Invitrogen) according to the manufacturer's instructions. RNA extraction from extracellular medium, blood plasma, and serum was performed as previously described (Turchinovich, A., et al (2011). Nucleic acids research 39, 7223-7233). Briefly, 1.2 ml of Trizol LS were added to 0.4 ml of blood plasma, serum or media. Then (i) 5 pg of synthetic miRNA-39 from Caenorhabditis elegans (cel-miR-39) were added as a spike-in control for purification efficiency; (ii) 1.2 μl of glycogen (10 mg/ml) were added to enhance the efficiency of RNA column binding. Purification of extracted total RNA was performed with miRNeasy columns (Qiagen) according to the manufacturer's instructions. RNA was eluted in 30 μl of RNase-free water. cDNA was synthesized using a hairpin long oligonucleotide. This method allows the detection of the s-RNYs derived from only the 5′ end of the precursor by quantitative RT-PCR analysis, namely the s-RNY1-5p and s-RNY3-5p from mouse and s-RNY1-5p, s-RNY3-5p, and s-RNY4-5p from human. Quantitative RT-PCRs using Sybr Green and TaqMan (Invitrogen) for cel-miR-39 were performed on a StepONE system (Applied Biosystem). The primer sequences are detailed in Table 1. […]

[6] = test system: potential s-RNYs-target mRNAs; test: Quantitative RT-PCR of potential s-RNYs-target mRNAs in PA-treated BMDMs; format: cell-based, mouse; conditions: of 32 mRNAs (about 62%), FIG. 11
Protocol: FIG. 11: Quantitative RT-PCR analysis of the potential s-RNYs-target mRNAs in BMDMs transfected with siAgo2, 2′-OMe-RNA antisense oligonucleotides (AS) to s-RNYs, or control. BMDMs were left unstimulated (black column) or stimulated with 0.25 mM of PA for 18 hr, and total RNA was isolated and analyzed. Data were normalized by U2 snRNA and are presented as mean and s.d. (n=6).
BMDMs and NIH-3T3 cells (ATCC) were transiently transfected for 48 hr with Lipofectamine 2000 (Invitrogen) according to the manufacturer's instructions. siRNAs were transfected at the final concentration of 24 nM, while 2′-OMe-RNA antisense oligonucleotides to s-RNYs (Eurogentec) were transfected at the final concentration of 100 nM. […]
as §1, with “Briefly, for mRNA, total RNA was isolated from cells using Trizol and cDNA was synthesized with a random hexonucleotides using Superscript III (Invitrogen).” left out, “e179).” for “e179). Briefly, total RNA was isolated from cells, tissue, or immunoprecipitation using Trizol (Invitrogen) according to the manufacturer's instructions.”

[7] = test system: human primary macrophages; test: Northern blot of s-RNYs in human primary macrophages; format: cell-based; conditions: data not shown

| Compound | s-RNY expression [2] | s-RNY expression [5] | further results |
| --- | --- | --- | --- |
| CCCCCCCCCCCCCCCC(=O)O [PA, palmitic acid] | induced | increased markedly | luciferase activity of the mutant reporter construct [1]: not affected; luciferase activity of the reporter construct containing the wt sequence [1]: repressed; time by which s-RNY expression was induced ([2]; 0.25 mM PA, FIG. 14A): ≤ 9 h; NF-κB activation (IκBα degradation) (p38, NF-κB, JNK; after 9 hr of treatment): enhanced; p38 activation (p38 phosphorylation) (p38, NF-κB, JNK; starting by 9 hr): enhanced; enrichment of s-RNYs in extracellular environment compared to control (BMDMs [3]): ~100 fold; apoptosis in macrophages treated with pro-atherogenic stimuli (BMDMs [4]): apoptosis activation |
| CCCCC/C=C\C/C=C\CCCCCCCC(=O)O [linoleic acid] | did not induce | did not induce | – |
| CCCCCCCCCCCCCCCCCC(=O)O [stearic acid] | induced | increased markedly | – |
| 5′-GUUGUAUUGUUUAGCGAUU-3′ (listed as RNA, chemistry not given here) [siAgo2] | – | – | potential target mRNAs whose expression was Ago2 and s-RNYs dependent [6]: at least 20/32 |
| C/C=C(/C)C(=O)O[C@H]1C(C)=C2[C@H]([C@@H]1OC(=O)CCCCCCC)[C@@](C)(OC(C)=O)C[C@H](OC(=O)CCC)[C@@]1(O)[C@H]2OC(=O)[C@@]1(C)O [thapsigargin] | no effect | – | – |
| CCCCCCCC/C=C\CCCCCCCC(=O)O [oleic acid] | did not induce | did not induce | – |
| CN[C@@H]1C[C@H]2O[C@@](C)([C@@H]1OC)n1c3ccccc3c3c4c(c5c6ccccc6n2c5c31)C(=O)NC4 [STS, staurosporine] | – | – | expression of s-RNYs (s-RNY1-5p, s-RNY1-3p, s-RNY3-5p and s-RNY4-5p) [7]: induced |
